Experimental data published in US20230126310A1 (priority 2020, published 2023).
Where two headings read alike, the source gives them in different places. Square brackets hold non-standard residues; d marks the D form. Peptide text beside a SMILES is read from it. NMeF = CN[C@@H](Cc1ccccc1)C(=O)O

Test system: SARS-CoV-2

Row | Molecule | % Inh. (% Inhibition of SARS-CoV-2) (10 µM) [%] | other results
1 | CC(C)(C)c1ccc(-c2nc3c(N4CCN(Cc5ccc6nccnc6c5)CC4)cccc3[nH]2)cc1 [WAY-207024] | 77.1 | 
2 | Cl.c1ccc2c(-c3cnn4cc(-c5ccc(N6CCNCC6)cc5)cnc34)ccnc2c1 [LDN193189 (Hydrochloride)] | 74.3 | 
3 | CCCCN1[C@@H]2CC[C@H]1CC(OC(c1ccc(F)cc1)c1ccc(F)cc1)C2 (stereo partly drawn) [JHW-007] | 93.1 | 
4 | Clc1ccc(N/N=C(\c2ccccc2)c2ccccn2)nc1 [JIB04 (NSC693627)] | 106.4 | 
5 | CC(C)(O)c1ccn2c(-c3ccc(F)c(-c4ccc(F)cc4C#N)c3)cnc2c1F [TP-003] | 100.8 | 
6 | CC(C)c1ccc2c(c1)CC[C@H]1[C@](C)(CN)CCC[C@]21C [lylamine] | 76.4 | 
7 | COc1ccc(CCN(C)CCCOc2ccc(S(=O)(=O)c3c(C(C)C)c4ccccc4n3C)cc2)cc1OC.O=C(O)C(=O)O [SR-33805 oxalate] | 67.7 | 
8 | CCn1c(=O)n(C2=C(CO)CN(CC3CCCCCCC3)CC2)c2ccccc21 [trap-101] | 77.9 | 
9 | O=C(NC1CCN(Cc2ccccc2)CC1)c1ccc(I)cc1 [4-IBP] | 89.9 | 
10 | CNS(=O)(=O)Nc1nccc(Cc2c(C)c3ccc(Oc4ncccn4)cc3oc2=O)c1F [RO5126766 (CH5126766)] | 102.6 | IC50: 5.36 µM; pIC50: 5.27
11 | COc1ccc(CNC(=O)Nc2ncc([N+](=O)[O-])s2)cc1 [AR-A014418] | 82.3 | 
12 | Cc1cc(N2CCOCC2)ccc1Nc1nc(NC2CCCCC2)c2[nH]cnc2n1 [MPI-0479605] | 61.2 | 
13 | COc1cc2c(cc1OC)CN(C(=O)[C@@H](NCc1ccncc1)C(C)(C)C)CC2 [TCS-OX2-29] | 52.7 | 
14 | CC(=O)O[C@H]1C[C@H](O[C@H]2[C@@H](O)C[C@H](O[C@H]3[C@@H](O)C[C@H](O[C@H]4CC[C@@]5(C)[C@H](CC[C@@H]6[C@@H]5C[C@@H](O)[C@]5(C)[C@@H](C7=CC(=O)OC7)CC[C@]65O)C4)O[C@@H]3C)O[C@@H]2C)O[C@H](C)[C@H]1O[C@@H]1O[C@H](CO)[C@@H](O)[C@H](O)[C@H]1O [LANATOSIDE C] | 63.7 | 
15 | NC(=O)N/N=C/c1ccc(Oc2ccc(F)cc2)cc1 [co-102862] | 55.2 | 
16 | Cc1ccc([N+](=O)[O-])cc1S(=O)(=O)N(C)/N=C/c1cnc2ccc(Br)cn12 [PIK-75] | 87.6 | 
17 | C[C@H](NC(=O)c1sccc1OCc1ccc(Cl)cc1)c1ccccc1 [AS-1949490] | 103.1 | 
18 | Skepinone-L | 86.1 | 
19 | c1ccc(C(NCCNC(c2ccccc2)c2ccccc2)c2ccccc2)cc1 [AMN-082] | 71.9 | 
20 | CCCCCCN(CCCCCC)C(=O)Cc1c(-c2ccc(F)cc2)[nH]c2ccccc12 [FGIN-1-27] | 73.5 | 
21 | Nc1[nH]nc2nnc(-c3c(-c4ccccc4)nn4ccccc34)cc12 [FR-180204] | 58.8 | 
22 | CC(C)c1c2cc(-c3ccnc(NC4CCC(NC5CCOCC5)CC4)n3)ccc2nn1C (stereo not drawn) [LY2857785] | 89.1 | 
23 | Cc1ccc(C(=O)N(CCCN)[C@@H](c2oc3cc(Cl)ccc3c(=O)c2Cc2ccccc2)C(C)C)cc1 [SB-743921] | 78.9 | 
24 | COc1ccccc1C1(O)CCN(CCCn2c3ccccc3c3ccccc32)CC1 [NNC-05-2090] | 71.8 | 

Row | Molecule | % Inh. (% Inhibition of SARS-CoV-2) (10 µM) [%] | other results
25 | SNS-314 methanesulfonate | 81.4 | 
26 | CSCC[C@H](NC(=O)[C@H](CC(C)C)NC(=O)[C@@H](Cc1c[nH]c2ccccc12)NC(=O)[C@H](Cc1ccccc1)N(C)C(=O)[C@@H](Cc1c[nH]c2ccccc12)NC(=O)[C@@H](N)CCCNC(=N)N)C(N)=O [Antagonist-G] (H-R[dW][NMeF][dW]LM-NH2; N-terminus and C-terminus assumed) |  | % Inh. (% Inhibition of SARS-CoV-2) (48 h, 10 μM): 58.0%
27 | CC(CNS(=O)(=O)C(C)C)c1ccc(-c2ccc(C#N)cc2)cc1 (stereo not drawn) [LY-404187] | 80.4 | 
28 | CCOC(=O)c1c(C)[nH]c2ccc3c(c12)CN1CCc2cc(OC)ccc2C1O3 (stereo not drawn) [PD-102807] | 121.8 | 
29 | Afatinib (dimaleate) | 60.2 | 
30 | CC1(C)CC(=O)c2c(C(F)(F)F)nn(-c3ccc(C(N)=O)c(N[C@H]4CC[C@H](OC(=O)CN)CC4)c3)c2C1 [PF-04929113 (SNX-5422)] | 91.3 | 
31 | CCCCCCCCc1ccc(-c2ccc(C(=O)O)cc2)cc1 [AC-55649] | 63.1 | 
32 | CC(C)[C@H]1c2ccc(F)cc2CC[C@@]1(CCN(C)CCCc1nc2ccccc2[nH]1)OC(=O)C1CC1 [NNC-55-0396] | 58.1 | 
33 | CCCCN1C[C@H](O)[C@@H](O)[C@H](O)[C@H]1CO [Miglustat (n-Butyldeoxynojirimycin)] | 64.4 | 
34 | COc1cc2cc(c1Cl)N(C)C(=O)C[C@H](OC(=O)C(C)C)[C@]1(C)O[C@@H]1[C@H](C)[C@@H]1C[C@@](O)(NC(=O)O1)[C@H](OC)/C=C/C=C(\C)C2 [Ansamitocin P-3] | 62.6 | 
35 | O=C(Nc1ccc(CN2CCOCC2)cc1)c1ccc(-c2cccc(Cl)c2)o1 [CID-2011756] | 97.0 | 
36 | Cc1ccc2c(=O)c3ccccc3n(CCCN)c2c1C.O=C(O)/C=C\C(=O)O [ER-27319 maleate] | 101.0 | 
37 | COc1ncc2cc(C(=O)Nc3cc(C(=O)NCc4cccc(Cl)c4)ccc3Cl)c(=O)[nH]c2n1 [TC-S-7004] | 77.3 | 
38 | COc1cc(SC)ccc1C(=O)N1CCC(Cc2ccccc2)CC1 [JX-401] | 71.2 | 
39 | COc1ccc2nc3cc(Cl)ccc3c(Nc3cc(CN4CCCC4)c(O)c(CN4CCCC4)c3)c2n1.O=P(O)(O)O.O=P(O)(O)O.O=P(O)(O)O.O=P(O)(O)O [PYRONARIDINE TETRAPHOSPHATE] | 80.6 | 
40 | CCCCCC(O)c1cccc(OCc2ccc3ccccc3n2)c1 [REV-5901/L-655,238] | 113.5 | 
41 | Cc1ccnc(NC(=O)C(C)c2cccc(C(=O)c3ccccc3)c2)c1 (stereo not drawn) [piketoprofen] | 72.4 | 
42 | NC(=O)Nc1sc(-c2ccc(F)cc2)cc1C(N)=O [TPCA-1] | 103.5 | 
43 | N#Cc1ccc(-c2csc(NN=C3CCCC3)n2)cc1 [remodelin] | 99.4 | 
44 | CC[C@H](C)[C@@H]([C@@H](CC(=O)N1CCC[C@H]1[C@H](OC)[C@@H](C)C(=O)N[C@@H](Cc1ccccc1)c1nccs1)OC)N(C)C(=O)[C@@H](NC(=O)[C@H](C(C)C)N(C)C)C(C)C [Dolastin-10] | 64.3 | 
45 | CCc1nc2ccc(Cl)cn2c1C(=O)NCc1ccc(N2CCC(c3ccc(OC(F)(F)F)cc3)CC2)cc1 [Q-203] | 96.9 | 
46 | CN1CC[C@@H](c2c(O)cc(O)c3c(=O)cc(-c4ccccc4Cl)oc23)[C@@H]1CO.Cl [P276-00] | 94.4 | 
47 | CNC(=O)Nc1ccc(-c2nc(N3CC4CCC(C3)O4)c3cnn(C4CCC5(CC4)OCCO5)c3n2)cc1 [WYE-125132] | 99.7 | 
48 | C[C@@H]1COCCN1c1cc(C2(S(C)(=O)=O)CC2)nc(-c2cccc3[nH]ccc23)n1 [AZ20] | 100.0 | 

Row | Molecule | % Inh. (% Inhibition of SARS-CoV-2) (10 µM) [%] | other results
49 | N[C@H]1CCN(O)C1=O [HA-966-(S)-(−)] | 52.3 | 
50 | Cc1cc(I)ccc1Nc1c(C(=O)NOCC2CC2)cc(F)c(F)c1F [PD-198306] | 51.6 | 
51 | CNC(=O)c1ccccc1Nc1nc(Nc2ccc(N3CCOCC3)cc2OC)ncc1Cl [NVP-TAE226] | 73.2 | 
52 | CN(C)C(=O)C(=O)c1cn(C)c2cc(Cl)c(C(=O)N3CCC(Cc4ccc(F)cc4)CC3)cc12 [SX-011] | 94.1 | 
53 | c1cncc(CN2CCC(n3ncc4c(N5CCOCC5)nc(-c5ccc6[nH]ccc6c5)nc43)CC2)c1 [WAY-600] | 99.1 | 
54 | CNc1ncc2cc(-c3cc(NC(=O)NCCC(C)(C)C)c(F)cc3C)c(C)nc2n1 [LY3009120] | 101.6 | 
55 | O=C1Nc2ccccc2C2(CCN(CCc3ccc(C(F)(F)F)cc3)CC2)O1 [RS-102895] | 82.1 | 
56 | c1ccc2nc(C3=NCCN3)cnc2c1 [BU-239] | 60.1 | 
57 | OCCCNc1cc(-c2ccnc(Nc3cccc(Cl)c3)n2)ccn1 [CGP-60474] | 54.4 | 
58 | CN(C)CCNc1nc2cc(O)ccc2c2c1C(=O)c1ccccc1-2.Cl.Cl [TAS-103 (dihydrochloride)] | 92.6 | 
59 | O=C1NC(=O)c2cc(Nc3ccc(F)cc3)c(Nc3ccc(F)cc3)cc21 [CGP-53353] | 86.1 | 
60 | CN1c2cc3c(cc2N=C(c2ccc(C(=O)O)cc2)c2ccccc21)C(C)(C)CCC3(C)C [LE-135] | 105.5 | 
61 | Cl.Cl.Fc1ccc(C(OCCN2CCN(C/C=C/c3ccccc3)CC2)c2ccc(F)cc2)cc1 [GBR-13069] | 66.7 | 
62 | CC(=O)N1CCN(CCOc2ccc(C3CCN(C4=Nn5c(nnc5C(F)(F)F)CC4)CC3)cc2)CC1 [AZD3514] | 96.8 | 
63 | CCCCCCCCCCCCCCCc1cccc(OCC(=O)NCCO)c1 [PDP-EA] | 65.3 | 
64 | CC[C@H](CO)Nc1nc(NCc2ccc(-c3ccccn3)cc2)c2ncn(C(C)C)c2n1 [CR8-(R)] | 76.6 | 
65 | Cc1ccc(NC(=O)C(C)C)cc1C1CCN(Cc2ccc(Oc3ccc(F)c(F)c3)cc2)CC1 [SNAP-94847] | 91.4 | 
66 | COc1ccc(-c2ccc3c(N4CCOC[C@@H]4C)nc(N4CCOC[C@@H]4C)nc3n2)cc1CO [AZD8055] | 105.2 | 
67 | Fc1ccc(CNc2ncnc3ccc(F)cc23)cc1 [spautin-1] | 92.1 | 
68 | O=C(Nc1cnccc1Cl)N1CCN(Cc2ccc3c(c2)OC(F)(F)O3)CC1 [JNJ-42165279] | 94.9 | 
69 | CCCCCCCC/C=C/CCCCCCCC(=O)OC[C@H]1O[C@@H](n2ccc(N)nc2=O)C(F)(F)[C@@H]1O [Gemcitabine (elaidate)] | 111.3 | 
70 | Chlorophyllin (sodium copper salt) | 66.7 | 
